Test results as given in PMC11509018, “Evaluation of the Role of Tanshinone I in an In Vitro System of Charcot-Marie-Tooth Disease Type 2N” (International Journal of Molecular Sciences, 2024).
Residue numbers refer to the chain shown, from its start.

Columns and labels:
AlaRS^E337K = target: T1, AlaRS^E337K (Homo sapiens, UniProt P49588, E337K); test: Proteolytic digestion assay (trypsin, SDS-PAGE); settings: three hours
T1 construct: made in house; host or cells: E. coli BL21 (DE3), pET-21a
T1 sequence (P49588 1-968 E337K): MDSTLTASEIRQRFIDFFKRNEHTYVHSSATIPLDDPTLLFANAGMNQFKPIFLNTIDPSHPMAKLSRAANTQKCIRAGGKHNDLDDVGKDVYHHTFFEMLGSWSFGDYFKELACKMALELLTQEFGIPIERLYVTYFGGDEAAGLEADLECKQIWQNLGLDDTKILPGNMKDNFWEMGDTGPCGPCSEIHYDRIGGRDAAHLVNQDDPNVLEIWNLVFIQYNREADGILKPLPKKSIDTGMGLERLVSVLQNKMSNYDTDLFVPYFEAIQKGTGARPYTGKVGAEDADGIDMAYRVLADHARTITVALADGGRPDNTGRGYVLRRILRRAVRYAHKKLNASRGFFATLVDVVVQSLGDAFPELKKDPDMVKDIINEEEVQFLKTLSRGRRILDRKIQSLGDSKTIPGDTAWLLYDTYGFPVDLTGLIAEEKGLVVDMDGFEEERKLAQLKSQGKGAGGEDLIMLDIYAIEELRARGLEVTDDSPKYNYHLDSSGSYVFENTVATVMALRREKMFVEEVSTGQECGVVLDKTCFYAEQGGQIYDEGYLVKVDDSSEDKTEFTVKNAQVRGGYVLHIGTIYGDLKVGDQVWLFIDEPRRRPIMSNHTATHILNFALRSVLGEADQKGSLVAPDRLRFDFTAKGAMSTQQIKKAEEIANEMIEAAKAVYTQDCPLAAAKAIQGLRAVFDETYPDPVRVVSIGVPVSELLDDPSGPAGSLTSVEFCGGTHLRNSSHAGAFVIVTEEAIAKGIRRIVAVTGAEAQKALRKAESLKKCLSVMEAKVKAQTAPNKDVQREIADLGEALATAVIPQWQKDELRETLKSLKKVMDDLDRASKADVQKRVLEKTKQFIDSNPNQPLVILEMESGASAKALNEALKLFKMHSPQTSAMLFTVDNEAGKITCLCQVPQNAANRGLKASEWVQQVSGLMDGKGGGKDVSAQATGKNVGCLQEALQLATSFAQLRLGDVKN
Description: (§1) Furthermore, we examined the interaction of Tanshinone I with additional AlaRS CMT mutants capable of binding to Nrp1 and causing conformational changes by BLI and proteolysis assays on additional related mutants.
(§2) Figure 5 BLI and proteolytic digestion assay of AlaRS mutants with Tanshinone I. Binding sensorgrams for the interaction of Tanshinone I with immobilized AlaRS^R329H (A), AlaRS^G102R (C), AlaRS^R326W (E), and AlaRS^E337K (G). Each sensorgram contains five curves generated from five different concentrations. The KD values are presented as the mean ± SD and experiments were performed in triplicate. The AlaRS^N71Y (B), AlaRS^G102R (D), AlaRS^R326W (F), and AlaRS^E337K (H) proteins (in the presence and absence of Tanshinone I) were incubated with trypsin at different concentrations for three hours before the reactions were quenched, and the products were separated by SDS-PAGE.

AlaRS^R326W = target: T2, AlaRS^R326W (Homo sapiens, UniProt P49588, R326W); test: Proteolytic digestion assay (trypsin, SDS-PAGE); settings: three hours
T2 construct: made in house; host or cells: E. coli BL21 (DE3), pET-21a
T2 sequence (P49588 1-968 R326W): T1 sequence (P49588 1-968 E337K) with R326W, K337E
Description: as §1, §2

NSC34 cells = test: Cell viability (CCK-8 assay); type: cell-based; settings: up to 40 μM, 24 h
Experimental: (§3) Further validation of the safety and efficacy of Tanshinone I involved conducting cytotoxicity assays to ensure minimal toxicity to normal cells, while effectively inhibiting the abnormal interaction between AlaRS CMT mutants and Nrp1. We used the CCK-8 assay to evaluate the effects of Tanshinone I on 293T and NSC34 cells. Cells were treated with different concentrations of Tanshinone I for 24 h, followed by incubation with CCK-8 reagent. […] The Cell Counting Kit-8 (CCK-8) assay was performed to assess cell viability following the manufacturer’s instructions. Briefly, cells were seeded at an initial density of 5 × 10^3 cells per well in a 96-well plate and incubated overnight. The following day, the cells were treated with various concentrations of Tanshinone I. After 24 h of treatment, 10 μL of CCK-8 reagent (GlpBio, Montclair, CA, USA) was added to each well, and the plate was incubated at 37 °C with 5% CO2 for 1.5 h. Absorbance was then measured at 450 nm using a multimode microplate reader. The experiment was repeated three times.

293T cells = test: Cell viability (CCK-8 assay); type: cell-based; settings: up to 40 μM, 24 h
Experimental: as §3

Q: `Cc1coc2c1C(=O)C(=O)c1c-2ccc2c(C)cccc12` [Tanshinone I] was tested. Which “Effect on proteolytic fragments / conformation” value (AlaRS^E337K) did it give?
A: Its value is “altered band patterns after Tanshinone I treatment”.

Q: And the “Effect on proteolytic fragments / conformation” value (AlaRS^R326W)?
A: Its value is “distinct proteolytic fragments after Tanshinone I treatment”.

Q: And the Cell viability (NSC34 cells)?
A: Its Cell viability is “did not significantly affect the viability”.

Q: What about the Cell viability (293T cells) of the same molecule?
A: The Cell viability was “did not significantly affect the viability”.
